# Tests used:
# [1] = tested on: Staphylococcus aureus; assay: Antibacterial activity against Staphylococcus aureus ATCC 6538p assessed as bacterial growth inhibition by agar dilution method; type: functional
# [2] = tested on: Staphylococcus epidermidis; assay: Antibacterial activity against Staphylococcus epidermidis ATCC 12228 assessed as bacterial growth inhibition by agar dilution method; type: functional
# [3] = tested on: Bacillus subtilis; assay: Antibacterial activity against Bacillus subtilis PTCC 1023 assessed as bacterial growth inhibition by agar dilution method; type: functional
# [4] = tested on: Escherichia coli; assay: Antibacterial activity against Escherichia coli ATCC 8739 assessed as bacterial growth inhibition by agar dilution method; type: functional
# [5] = tested on: Klebsiella pneumoniae; assay: Antibacterial activity against Klebsiella pneumoniae ATCC 10031 assessed as bacterial growth inhibition by agar dilution method; type: functional
# [6] = tested on: Enterobacter cloacae; assay: Antibacterial activity against Enterobacter cloacae PTCC 1003 assessed as bacterial growth inhibition by agar dilution method; type: functional
# [7] = tested on: Escherichia coli; assay: Antibacterial activity against Escherichia coli ATCC 25922 assessed as bacterial growth inhibition by agar disc diffusion assay; type: functional
# [8] = tested on: Pseudomonas aeruginosa; assay: Antibacterial activity against Pseudomonas aeruginosa ATCC 27853 assessed as bacterial growth inhibition by agar disc diffusion assay; type: functional
# [9] = tested on: Staphylococcus aureus; assay: Antibacterial activity against Staphylococcus aureus ATCC 25923 assessed as bacterial growth inhibition by agar disc diffusion assay; type: functional
# [10] = tested on: Staphylococcus aureus; assay: Antibacterial activity against Staphylococcus aureus clinical isolate 1 assessed as bacterial growth inhibition by agar disc diffusion assay; type: functional
# [11] = tested on: Escherichia coli; assay: Antibacterial activity against Escherichia coli clinical isolate 1 assessed as bacterial growth inhibition by agar disc diffusion assay; type: functional
# [12] = tested on: Pseudomonas aeruginosa; assay: Antibacterial activity against Pseudomonas aeruginosa clinical isolate 1 assessed as bacterial growth inhibition by agar disc diffusion assay; type: functional
# [13] = tested on: Alternaria; assay: Antifungal activity against Alternaria assessed as fungal growth inhibition measured after 7 days by agar disc diffusion assay; type: functional; conditions: 168 h, time 7 day
# [14] = tested on: Fusarium oxysporum f. sp. lycopersici; assay: Antifungal activity against Fusarium oxysporum f. sp. lycopersici assessed as fungal growth inhibition measured after 7 days by agar disc diffusion assay; type: functional; conditions: 168 h, time 7 day
# [15] = tested on: Pseudomonas aeruginosa; assay: Antibacterial activity against Pseudomonas aeruginosa assessed as bacterial growth inhibition by broth microdilution assay; type: functional
# [16] = tested on: Escherichia coli; assay: Antibacterial activity against Escherichia coli ATCC35218 assessed as bacterial growth inhibition measured after 18 to 24 hrs inhibition by broth microdilution assay; type: functional; conditions: time 18-24 hrs
# [17] = tested on: Escherichia coli; assay: Antibacterial activity against Escherichia coli assessed as bacterial growth inhibition measured after 18 to 24 hrs by two fold serial dilution assay; type: functional; conditions: time 18-24 hrs
# [18] = tested on: Staphylococcus aureus; assay: Antibacterial activity against methicillin sensitive Staphylococcus aureus assessed as bacterial growth inhibition measured after 18 to 24 hrs by two fold serial dilution assay; type: functional; conditions: time 18-24 hrs
# [19] = tested on: Klebsiella pneumoniae; assay: Antibacterial activity against Klebsiella pneumoniae assessed as bacterial growth inhibition measured after 18 to 24 hrs by two fold serial dilution assay; type: functional; conditions: time 18-24 hrs
# [20] = tested on: Pseudomonas aeruginosa; assay: Antibacterial activity against Pseudomonas aeruginosa assessed as bacterial growth inhibition measured after 18 to 24 hrs by two fold serial dilution assay; type: functional; conditions: time 18-24 hrs
# [21] = tested on: Staphylococcus aureus; assay: Antibacterial activity against Staphylococcus aureus assessed as bacterial growth inhibition measured after 24 hrs by agar cup diffusion assay; type: functional
# [22] = tested on: Escherichia coli; assay: Antibacterial activity against Escherichia coli assessed as bacterial growth inhibition measured after 24 hrs by agar cup diffusion assay; type: functional
# [23] = tested on: Pseudomonas aeruginosa; assay: Antibacterial activity against Pseudomonas aeruginosa assessed as bacterial growth inhibition measured after 24 hrs by agar cup diffusion assay; type: functional
# [24] = tested on: Candida albicans; assay: Antifungal activity against Candida albicans assessed as fungal growth inhibition measured after 24 hrs by agar cup diffusion assay; type: functional
# [25] = tested on: Staphylococcus aureus; assay: Antibacterial activity against Staphylococcus aureus ATCC 29213 assessed as bacterial growth inhibition by broth microdilution assay; type: functional
# [26] = tested on: Staphylococcus aureus; assay: Antibacterial activity against Staphylococcus aureus assessed as bacterial growth inhibition by serial dilution method; type: functional
# [27] = tested on: Pseudomonas aeruginosa; assay: Antibacterial activity against Pseudomonas aeruginosa assessed as bacterial growth inhibition by serial dilution method; type: functional
# [28] = tested on: Acinetobacter baumannii; assay: Antibacterial activity against Acinetobacter baumannii assessed as bacterial growth inhibition by serial dilution method; type: functional
# [29] = tested on: Escherichia coli; assay: Antibacterial activity against Escherichia coli assessed as bacterial growth inhibition by serial dilution method; type: functional
# [30] = tested on: Klebsiella pneumoniae; assay: Antibacterial activity against Klebsiella pneumoniae assessed as bacterial growth inhibition by serial dilution method; type: functional
# [31] = tested on: Escherichia coli; assay: Antibacterial activity against Escherichia coli ATCC 10536 assessed as bacterial growth inhibition measured after 24 to 48 hrs by agar dilution assay; type: functional; conditions: time 24-48 hrs
# [32] = tested on: Pseudomonas aeruginosa; assay: Antibacterial activity against Pseudomonas aeruginosa ATCC 11632 assessed as bacterial growth inhibition measured after 24 to 48 hrs by agar dilution assay; type: functional; conditions: time 24-48 hrs
# [33] = Anticancer activity against EAC cell assessed as cell growth inhibition measured after 24 to 72 hrs by MTT assay; type: functional, cell-based; conditions: Ehrlich
# [34] = tested on: MCF7; assay: Anticancer activity against human MCF7 cell assessed as cell growth inhibition measured after 24 to 72 hrs by MTT assay; type: functional, cell-based
# [35] = tested on: HT-29; assay: Anticancer activity against human HT-29 cell assessed as cell growth inhibition measured after 24 to 72 hrs by MTT assay; type: functional, cell-based
# [36] = tested on: WRL68; assay: Anticancer activity against human WRL68 cell assessed as cell growth inhibition measured after 24 to 72 hrs by MTT assay; type: functional, cell-based
# [37] = tested on: Staphylococcus aureus; assay: Antibacterial activity against ciprofloxacin resistant Staphylococcus aureus assessed as bacterial growth inhibition by broth microdilution assay; type: functional
# [38] = tested on: Staphylococcus aureus; assay: Antibacterial activity against Staphylococcus aureus assessed as bacterial growth inhibition by broth microdilution assay; type: functional
# [39] = tested on: Escherichia coli; assay: Antibacterial activity against Escherichia coli assessed as bacterial growth inhibition by broth microdilution assay; type: functional
# [40] = tested on: Escherichia coli; assay: Potency index, ratio of ampicillin MIC to test compound MIC for antimicrobial activity against Escherichia coli assessed as bacterial growth inhibition by broth microdilution assay; type: functional
# [41] = tested on: Pseudomonas aeruginosa; assay: Potency index, ratio of ampicillin MIC to test compound MIC for antimicrobial activity against Pseudomonas aeruginosa assessed as bacterial growth inhibition by broth microdilution assay; type: functional
# [42] = tested on: Staphylococcus aureus; assay: Potency index, ratio of ampicillin MIC to test compound MIC for antimicrobial activity against Staphylococcus aureus assessed as bacterial growth inhibition by broth microdilution assay; type: functional
compound,measurement,setting,value
COc1cc(OC)nc(/N=N/N2CCN(c3cc4c(cc3F)c(=O)c(C(=O)C(C(C)=O)C(C)=O)cn4C3CC3)CC2)n1,MIC,[1],0.015 µg/mL
same,MIC,[2],0.015 µg/mL
same,MIC,[3],0.015 µg/mL
same,MIC,[4],0.015 µg/mL
same,MIC,[5],0.015 µg/mL
same,MIC,[6],0.015 µg/mL
CCOP(=O)(OCC)C(NS(=O)(=O)Nc1ccc(F)cc1)c1cc2cccc(C)c2[nH]c1=O (centres undefined),MIC,[7],0.5 µg/mL
same,MIC,[8],0.5 µg/mL
same,MIC,[9],0.5 µg/mL
same,MIC,[10],0.5 µg/mL
same,MIC,[11],0.5 µg/mL
same,MIC,[12],0.5 µg/mL
same,MIC,[13],0.125 µg/mL
same,MIC,[14],0.125 µg/mL
COc1c(N2C[C@H]3CCCN(C(=O)Cn4cc(CN5C(=O)C(=O)c6ccccc65)nn4)[C@H]3C2)c(F)cc2c(=O)c(C(=O)O)cn(C3CC3)c12,MIC,[15],≤ 0.03 µg/mL
same,MIC,[16],≤ 0.03 µg/mL
same,MIC,[17],≤ 0.03 µg/mL
same,MIC,[18],≤ 0.03 µg/mL
same,MIC,[19],≤ 0.03 µg/mL
same,MIC,[20],≤ 0.03 µg/mL
O=C(/C=C/c1ccc(F)cc1)c1ccc(NC(=O)N2CCN(c3cc4c(cc3F)c(=O)c(C(=O)O)cn4C3CC3)CC2)cc1,MIC,[21],0.53 µg/mL
same,MIC,[22],0.53 µg/mL
same,MIC,[23],0.53 µg/mL
same,MIC,[24],2.03 µg/mL
COc1ccc2nc(CN3CCN(c4cc5c(cc4F)c(=O)c(C(=O)O)cn5C4CC4)CC3)[nH]c(=O)c2c1,MIC,[25],0.031 µg/mL
CCOC(=O)C(C(=O)OCC)C(=O)c1cn(C2CC2)c2cc(N3CCN(/N=N/c4nc(OC)cc(OC)n4)CC3)c(F)cc2c1=O,MIC,[1],0.015 µg/mL
same,MIC,[2],0.015 µg/mL
same,MIC,[3],0.015 µg/mL
same,MIC,[4],0.015 µg/mL
same,MIC,[5],0.015 µg/mL
same,MIC,[6],0.015 µg/mL
Cc1ccc(/N=C(\N2CCN(c3cc4c(cc3F)c(=O)c(C(=O)O)cn4C3CC3)CC2)C(F)(F)F)cc1,MIC,[26],0.039 µg/mL
same,MIC,[27],0.039 µg/mL
same,MIC,[28],0.039 µg/mL
same,MIC,[29],0.039 µg/mL
same,MIC,[30],0.039 µg/mL
O=C(CNc1ccc(-c2nc3ccc(Cl)c(Cl)c3s2)cc1)c1c(O)c2ccccc2n(-c2ccccc2)c1=O,MIC,[31],0.5 µg/mL
same,MIC,[32],1 µg/mL
same,IC50,[33],398 nM
same,IC50,[34],398 nM
same,IC50,[35],398 nM
same,IC50,[36],398 nM
CCCCCC(=O)N(CCNCCNc1ccc(CN2CCN(c3cc4c(cc3F)CC(C(=O)O)=CN4C3CC3)CC2)cc1)CCN(CCN(CCN(CCN(CCN(CCN(CCN(CCN(CCN(CCN(CCN(CCN(CCN(CCN(CCN(CCN(CCN(CCN(CCN(CCN(CCN(CCN(CCN(CCN(CCN(CCN(CCN(CCN(CCN(CCN(CCNC(C)=O)C(C)=O)C(C)=O)C(C)=O)C(C)=O)C(C)=O)C(C)=O)C(C)=O)C(C)=O)C(C)=O)C(C)=O)C(C)=O)C(C)=O)C(C)=O)C(C)=O)C(C)=O)C(C)=O)C(C)=O)C(C)=O)C(C)=O)C(C)=O)C(C)=O)C(C)=O)C(C)=O)C(C)=O)C(C)=O)C(C)=O)C(C)=O)C(=O)CCCCC)C(=O)CCCCC)C(=O)CCCCC,MIC,[37],0.44 µg/mL
CCn1cc(C(=O)NN2C(=O)/C(=C/C=C/c3ccccc3)SC2=S)c(=O)c2cc(F)ccc21,MIC,[38],< 1 µg/mL
same,MIC,[39],< 1 µg/mL
same,MIC,[15],< 1 µg/mL
same,Ratio,[40],>10
same,Ratio,[41],>10
same,Ratio,[42],>10

# Source: ChEMBL document CHEMBL5360532, “Current scenario of quinolone hybrids with potential antibacterial activity against ESKAPE pathogens” (Eur J Med Chem, 2023)
